Experimental data reported in patent US10500249B2, “Compositions and methods for preventing or treating diseases, conditions, or processes characterized by aberrant fibroblast proliferation and extracellular matrix deposition” (MOERAE MATRIX, INC., priority 2014, dated 2019).
“Also recorded” adds a separate entry of the source. Ends that are not written are not given here.

Tests used:
[1] = tested on: bleomycin-induced lung fibrosis; assay: Bleomycin mouse model of pulmonary fibrosis (prevention model); type: in vivo, C57BL/6 mice; conditions: for collagen accumulation (Masson's Trichrome staining) / fibrotic loci formation / lung fibrosis (H&E staining): daily day 7 to 21 post bleomycin
Method: (§1) A mouse model of pulmonary fibrosis was generated by administering 0.025 U of bleomycin/PBS intratracheally to C57BL/6 mice. […] At 21 day post bleomycin delivery (for prevention model) or 28 post bleomycin delivery (for treatment model), groups of mice were sacrificed with a sodium pentobarbital injection (120 mg/kg) and the chest cavity was opened. The right mainstem bronchus was ligated and the right lung was removed. The trachea was cannulated and the left lung was perfused with 4% formaldehyde at 21 cm H2O pressure. The tissue blocks then were embedded in paraffin, and […] sections were prepared for staining. Sections from each animal were stained with hematoxylin and eosin (H&E) to visualize cells or with Masson's Trichrome staining to highlight collagen deposition. […] Stained sections were mounted onto a labeled glass slide with organic mounting medium.
Briefly, fibrotic loci in the lungs of the mice were induced by delivering intratracheally about 0.025 U of bleomycin (dissolved in PBS) to C57BL/6 mice. […] Briefly, mice were sacrificed with a sodium pentobarbital injection (120 mg/kg) and the chest cavity was opened. The right mainstem bronchus was ligated and the right lung was removed. The trachea was cannulated and the left lung was perfused with 4% formaldehyde at 21 cm H2O pressure. The tissue blocks then were embedded in paraffin, and […] sections were prepared, and stained with hematoxylin and eosin (H&E; for pathological examination) or Masson's Trichrome (for collagen staining)
Next, total collagen levels in the lungs of the bleomycin-injured mice (FIG. 12) were analyzed quantitatively by computing a constant conversion factor (7.5) for collagen from hydroxyproline concentrations (Neuman R. and Logan M, J Biol Chem., 186(2):549-56, 1950, incorporated by reference).
Next, the effect of increasing doses of MK2 peptide inhibitors on collagen deposition was examined in vivo using the bleomycin mouse model of idiopathic pulmonary fibrosis (prevention model). Briefly, C57-BL/6 mice were subjected to bleomycin injury at day 0.

[2] = tested on: bleomycin-induced lung fibrosis; assay: Bleomycin mouse model of pulmonary fibrosis (treatment model); type: in vivo, C57BL/6 mice; conditions: for collagen deposition (hydroxyproline assay, whole left lung): day 28 post bleomycin; for lung scarring, histology (H&E and Masson's blue trichrome): daily day 14 to 28 post bleomycin
Method: as §1
The classic bleomycin model, as depicted in FIG. 10, has been used widely in the literature in the pre-fibrotic stage to test efficacy of any intervention.
More specifically, fibrotic loci in the lungs were induced by delivering intratracheally about 0.025 U of bleomycin (dissolved in PBS) to C57BL/6 mice. […] Mice were sacrificed with a sodium pentobarbital injection (120 mg/kg) and the chest cavity was opened. The right mainstem bronchus was ligated and the right lung is removed. The trachea was cannulated and the left lung was perfused with 4% formaldehyde at 21 cm H2O pressure. The tissue blocks then were embedded in paraffin, and […] sections were prepared, and stained with hematoxylin and eosin (H&E; for pathological examination) or Masson's Trichrome (for collagen staining)
Next, collagen deposition was determined quantitatively by using the standard hydroxyproline assay with whole left lung. Total collagen (soluble and insoluble) deposition was assessed by analyzing hydroxyproline concentrations in murine lungs day 28 post bleomycin injury.

[3] = tested on: splenic T cells; assay: Autologous mixed lymphocyte reaction, splenic T cells of bleomycin mice; type: in vivo, C57-BL/6 mice
Excerpt: Recent studies highlighted a key role for T lymphocytes in bleomycin-induced fibrosis (Wilson, M. et al., The Journal of Experimental Medicine, 207(3): 535-552, 2010). […] Specifically, the ability of C57BL/6 purified antigen-presenting cells to induce proliferation in C57BL/6 T lymphocytes was examined in the assay.
C57-BL/6 mice were subjected to bleomycin injury at day 0. […] Splenic T cells were isolated and cultured alone or in the presence of autologous antigen presenting cells (APCs from C57-BL/6 mice) or stimulated with antibodies against CD3 (α-CD3) for 48 h. The cells then were radiolabeled with […] thymidine for 16 h and assessed for proliferation rates.

[4] = tested on: phospho-Thr^334-MAPKAPK2 (activated MK2); assay: Activated MK2 immunostaining of lung sections, bleomycin treatment model; type: in vivo, C57-BL/6 mice; conditions: day 14 to 28
Excerpt: (§2) Briefly, C57-BL/6 mice were subjected to bleomycin injury at day 0. […] Formalin-fixed lung tissue sections were immunostained against phospho-Thr^334 MK2. Control staining was with biotinylated secondary IgG antibody. Streptavidin-conjugated horseradish peroxidase was used with 3,3′-diaminobenzidene as substrate and nuclei was counterstained with hematoxylin.

[5] = tested on: TNF-α; assay: Plasma cytokine level, bleomycin treatment model; type: in vivo, mouse; conditions: 24 hours after final administration
[6] = target: MAPKAP-K2 (h) (Homo sapiens, UniProt P49137); assay: Kinase Profiling Assay; type: biochemical; conditions: read-out: inhibition of kinase activity of MK2
Chain of MAPKAP-K2 (h) (P49137 whole entry): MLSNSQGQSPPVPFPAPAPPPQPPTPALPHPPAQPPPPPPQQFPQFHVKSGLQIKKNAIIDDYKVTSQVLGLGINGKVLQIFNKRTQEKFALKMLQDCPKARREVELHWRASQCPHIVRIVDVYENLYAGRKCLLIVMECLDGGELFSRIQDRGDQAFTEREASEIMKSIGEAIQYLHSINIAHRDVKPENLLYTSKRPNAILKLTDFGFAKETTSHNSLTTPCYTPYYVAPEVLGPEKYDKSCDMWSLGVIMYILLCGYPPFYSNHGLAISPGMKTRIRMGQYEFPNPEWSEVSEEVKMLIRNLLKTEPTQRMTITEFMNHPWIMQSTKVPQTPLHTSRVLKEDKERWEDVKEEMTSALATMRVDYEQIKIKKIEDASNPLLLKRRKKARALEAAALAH
Method: (§3) Every kinase activity measurement was conducted in duplicate.
(§4) Specifically, in these assays, a positively charged substrate is phosphorylated with a radiolabeled phosphate group from an ATP if the kinase is not inhibited by an inhibitor peptide. The positively charged substrate then is attracted to a negatively charged filter membrane, quantified with a scintillation counter, and compared to a 100% activity control.
(§5) In addition to determining the IC50 of the compound, the specificity of MK2 inhibitory peptides was assessed by examining activities of all 266 human kinases available for testing in the Millipore kinase profiling service (Table 1).

[7] = target: MAPKAP-K3 (h) (Homo sapiens, UniProt Q16644); assay: Kinase Profiling Assay; type: biochemical; conditions: read-out: inhibition of kinase activity of MK3
Chain of MAPKAP-K3 (h) (Q16644 whole entry): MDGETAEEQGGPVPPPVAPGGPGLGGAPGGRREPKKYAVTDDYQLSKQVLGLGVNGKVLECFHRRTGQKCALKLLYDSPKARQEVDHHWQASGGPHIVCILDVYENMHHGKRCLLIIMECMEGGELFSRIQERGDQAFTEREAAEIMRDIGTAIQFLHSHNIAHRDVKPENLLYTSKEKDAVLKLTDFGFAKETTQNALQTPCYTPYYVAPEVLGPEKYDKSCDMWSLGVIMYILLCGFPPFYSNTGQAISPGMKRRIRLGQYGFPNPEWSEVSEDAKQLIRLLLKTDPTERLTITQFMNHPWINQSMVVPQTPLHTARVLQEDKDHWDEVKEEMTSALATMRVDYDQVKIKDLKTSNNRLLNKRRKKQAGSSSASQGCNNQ
Method: as §3, §4, §5

[8] = target: TrkB (h) (Homo sapiens, UniProt Q16620); assay: Kinase Profiling Assay; type: biochemical; conditions: read-out: inhibition of kinase activity of TrkB
Chain of TrkB (h) (Q16620 32-822): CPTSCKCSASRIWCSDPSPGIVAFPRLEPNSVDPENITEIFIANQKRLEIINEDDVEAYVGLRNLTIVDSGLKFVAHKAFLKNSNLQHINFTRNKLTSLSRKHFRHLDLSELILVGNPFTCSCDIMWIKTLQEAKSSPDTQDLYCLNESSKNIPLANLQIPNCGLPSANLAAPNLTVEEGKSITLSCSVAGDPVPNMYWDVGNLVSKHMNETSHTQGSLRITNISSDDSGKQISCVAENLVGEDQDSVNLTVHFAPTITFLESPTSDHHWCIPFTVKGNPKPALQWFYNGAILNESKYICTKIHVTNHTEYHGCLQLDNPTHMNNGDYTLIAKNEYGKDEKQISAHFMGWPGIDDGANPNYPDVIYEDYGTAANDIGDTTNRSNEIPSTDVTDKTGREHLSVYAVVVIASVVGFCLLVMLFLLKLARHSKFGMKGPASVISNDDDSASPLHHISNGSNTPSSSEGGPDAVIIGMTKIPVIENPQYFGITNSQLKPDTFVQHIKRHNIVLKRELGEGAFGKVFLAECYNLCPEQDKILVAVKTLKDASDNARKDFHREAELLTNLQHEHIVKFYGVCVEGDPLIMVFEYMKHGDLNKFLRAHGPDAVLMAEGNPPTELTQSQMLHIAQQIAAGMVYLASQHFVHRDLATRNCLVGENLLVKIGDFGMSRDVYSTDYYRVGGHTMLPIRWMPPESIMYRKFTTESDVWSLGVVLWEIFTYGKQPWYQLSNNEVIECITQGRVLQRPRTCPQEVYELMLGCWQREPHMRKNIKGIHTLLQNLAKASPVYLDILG
Method: as §3, §4, §5

[9] = target: T1, p70S6K (h) (Homo sapiens, UniProt P23443); assay: Kinase Profiling Assay; type: biochemical
T1 construct: purchased Millipore
T1 sequence (P23443 whole entry): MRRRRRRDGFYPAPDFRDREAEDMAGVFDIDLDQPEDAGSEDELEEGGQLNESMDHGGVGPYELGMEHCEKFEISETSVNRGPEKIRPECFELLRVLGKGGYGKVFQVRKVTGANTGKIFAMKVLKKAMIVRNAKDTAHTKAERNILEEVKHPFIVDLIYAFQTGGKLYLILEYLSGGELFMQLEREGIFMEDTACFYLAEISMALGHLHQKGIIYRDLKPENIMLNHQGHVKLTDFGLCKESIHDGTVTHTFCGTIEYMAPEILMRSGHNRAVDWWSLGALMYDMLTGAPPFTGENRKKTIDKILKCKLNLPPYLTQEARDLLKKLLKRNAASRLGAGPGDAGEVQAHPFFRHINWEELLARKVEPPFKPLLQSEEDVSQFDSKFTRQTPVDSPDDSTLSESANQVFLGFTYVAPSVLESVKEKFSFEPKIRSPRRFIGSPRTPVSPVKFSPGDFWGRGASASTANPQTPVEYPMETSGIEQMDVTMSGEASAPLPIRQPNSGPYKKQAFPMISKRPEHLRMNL
Method: as §3, §4, §5

[10] = tested on: MLCK (h); assay: Kinase Profiling Assay; type: biochemical, human; conditions: 100 μM
Method: as §3, §4, §5

[11] = tested on: SGK (h); assay: Kinase Profiling Assay; type: biochemical, human; conditions: 100 μM
Method: as §3, §4, §5

[12] = tested on: IL-6; assay: Plasma cytokine level, bleomycin treatment model; type: in vivo, mouse; conditions: 24 hours after final administration
[13] = tested on: alpha-smooth muscle actin (α-SMA); assay: α-SMA immunostaining of lung sections, bleomycin treatment model; type: in vivo, C57-BL/6 mice; conditions: day 14 through 28
Excerpt: as §2, with “C57-BL/6” for “Briefly, C57-BL/6”, “α-SMA.” for “phospho-Thr^334 MK2.”, “hematoxylin. Original magnifications: 20×” for “hematoxylin.”

[14] = tested on: human fetal lung fibroblasts (IMR-90), α-SMA; assay: TGF-β-induced myofibroblast activation, α-SMA immunoblot; type: cell-based; conditions: 1 h pre-treatment, then TGF-β1 (2 ng/ml) 48 h
Excerpt: Cell lysates were immunoblotted against antibodies for α-SMA (a marker for myofibroblast activation) and GAPDH (loading control).

[15] = tested on: human fetal lung fibroblasts (IMR-90), fibronectin; assay: TGF-β-mediated fibronectin expression; type: cell-based; conditions: 1 h pre-treatment, then TGF-β1 (2 ng/ml) 72 h
Method: Fibronection was measured as secreted fragments in the conditioned media. Equal amounts (14 μg) of total proteins from the conditioned media were loaded in each lane.

Sequence: YARAAARQARAKALARQLGVAA [MMI-0100]
- collagen levels in the lung (Masson's blue trichrome staining), dose response ([1]; 25, 50 or 75 μg/kg daily IP, day 7 through day 21): prevents fibrosis due to bleomycin injury in a dose-dependent manner; also recorded: decrease in collagen levels
- collagen accumulation (Masson's Trichrome staining) ([1]; intraperitoneal): reduced collagen accumulation
- fibrotic loci formation / lung fibrosis (H&E staining) ([1]; intraperitoneal): protects against bleomycin-induced lung fibrosis; also recorded: significantly reduced development of fibrotic loci formation
- collagen accumulation (Masson's Trichrome staining) ([1]; nebulization): reduced collagen accumulation
- fibrotic loci formation / lung fibrosis (H&E staining) ([1]; nebulization): protects against bleomycin-induced lung fibrosis; also recorded: significantly reduced development of fibrotic loci formation
- collagen deposition (hydroxyproline assay, whole left lung) ([2]; 50 μg/kg/day IP from day 14): arrests significant collagen deposition; also recorded: significantly arrested further progression of collagen deposition
- collagen deposition (hydroxyproline assay, whole left lung) ([2]; 50 μg/kg/day nebulizer from day 14): arrests significant collagen deposition; also recorded: significantly arrested further progression of collagen deposition
- lung scarring, histology (H&E and Masson's blue trichrome) ([2]; intraperitoneal): ameliorates bleomycin-induced lung fibrosis; also recorded: rescued
- lung scarring, histology (H&E and Masson's blue trichrome) ([2]; nebulized): ameliorates bleomycin-induced lung fibrosis; also recorded: rescued
- toxicity (proliferative response of splenic T cells to α-CD3) ([3]; 50 μg/kg/day, day 7 to 21): no toxicity
- systemic distribution ([3]; nebulized, inferred from lack of splenic T cell response): little systemic distribution
- phospho-Thr^334-MAPKAPK2 staining (activated form of MK2) in lung ([4]; 50 μg/kg daily intraperitoneal): decreased phospho-Thr^334-MAPKAPK2 staining
- phospho-Thr^334-MAPKAPK2 staining (activated form of MK2) in lung ([4]; 50 μg/kg daily nebulized): as effective as conventional systemic injections in attenuating MK2 activation; also recorded: decreased phospho-Thr^334-MAPKAPK2 staining
- plasma level of TNF-α ([5]; intraperitoneal): significantly reduced
- plasma level of TNF-α ([5]; nebulized): significantly reduced
- inhibition at 100 µM [6]: > 65%
- inhibition at 100 µM [7]: > 65%
- inhibition at 100 µM [8]: > 65%
- activity at 100 µM [9]: 89%
- % activity [10]: 85%
- % activity [11]: 128%
- plasma level of IL-6 ([12]; intraperitoneal): significantly reduced
- plasma level of IL-6 ([12]; nebulized): significantly reduced
- level of α-SMA in bleomycin-injured lungs ([13]; 50 μg/kg/day intraperitoneal): inhibits myofibroblast alpha-smooth muscle actin (α-SMA) activation; also recorded: significantly attenuated
- level of α-SMA in bleomycin-injured lungs ([13]; 50 μg/kg/day nebulizer): inhibits myofibroblast alpha-smooth muscle actin (α-SMA) activation; also recorded: significantly attenuated
- protein level of α-smooth muscle actin (α-SMA) [14]: effectively prevented myofibroblast activation
- protein level of fibronectin (secreted fragments in conditioned media) [15]: effectively prevented myofibroblast activation
